Experimental data: PubChem BioAssay AID1845195 (Molecular Pharmacology Branch, DTP, NCI, 2023)

Tested on: 156681-154-R-J1 tumor spheroid viability
Experiment: Anticancer human tumor 156681-154-R-J1 patient-derived melanoma cell line growth inhibition
Conditions: spheroids with HUVEC and MSC; for IC50: curve of first compound; for viability, T/C: stronger effect = lower value
From the text: Multicellular complex tumor spheroid response to DNA repair inhibitors in combination with DNA-damaging drugs
This study explores the anticancer activities of DNA-damaging drugs and inhibitors of DNA damage repair, both as single agents and in combinations. Complex tumor spheroids comprised of malignant cells, endothelial cells and mesenchymal stem cells served as an in vitro model for human solid tumors. This model system incorporates physiologically relevant features and patient-derived or established malignant cell lines with clinically relevant genetic alterations from many tumor types. Twenty-six patient-derived or established malignant cell lines were evaluated representing sarcoma, melanoma, small cell lung cancer (SCLC), non-small cell lung cancer (NSCLC), as well as bladder, ovarian and pancreatic cancers. The concentration ranges selected for each drug and investigational agent were based upon clinically achievable concentrations if the clinical Cmax of the agent was known.
Compounds. The drugs and compounds olaparib (NSC753686), talazoparib (NSC767125), berzosertib (NSC777718), elimusertib (NSC800525), nedisertib (NSC802822), VX-984 (NSC792969), AZD-1390 (NSC803789), temozolomide (NSC362856), topotecan (NSC609699), trabectedin (NSC813783), staurosporine (NSC755774), and gemcitabine (NSC613327) were obtained from the National Cancer Institute (NCI) Developmental Therapeutics Program Chemical Repository. The FDA-approved anticancer drug set is available from the Developmental Therapeutics Program at https://dtp.cancer.gov/organization/dscb/obtaining/available_plates.htm. […] The stock solutions were prepared in dimethyl sulfoxide (DMSO, Sigma-Aldrich, St. Louis, MO, cat. D2650) at 400-fold the tested concentration and stored at -70 degrees C. Prior to their use, the stock solutions were diluted in fresh medium and the final DMSO concentration in the assay was 0.25% (v/v). All drugs and investigational agents were tested over a range starting from a high concentration at or near the clinical Cmax and decreasing in half-log increments. If the clinical Cmax for an agent had not been determined, the highest concentration tested was 10 microM.
Cell Lines. The patient-derived cancer cell (PDC) lines: 156681-154-R-J1-PDC, 283228-195-R-J1-PDC, 287954-098-R-J1-PDC, 292921-168-R-J2-PDC, 349418-098-R-PDC, 425362-245-T-J1-PDC, 556581-035-R-J1-PDC, and BL0293-F563-PDC were received from the NCI Patient-Derived Models Repository (PDMR, https://pdmr.cancer.gov). The established cell lines HS-SY-2 (RRID:CVCL_8719), MPNST, and SYO-1 (RRID:CVCL_7146) were obtained from the Sloan Kettering Institute. The alveolar soft parts sarcoma cell line ASPS-1 (RRID:CVCL_S738) was established at the NCI and grown from internal seed stocks. The following established cell lines were purchased from the American Type Culture Collection (ATCC, Manassas, VA): G-401 (ATCC, cat. CRL-1441, RRID:CVCL_0270), SW982 (ATCC, cat. HTB-93, RRID:CVCL_1734), VA-ES-BJ (ATCC, cat. CRL-2138, RRID:CVCL_1785), NCI-H719 (ATCC, cat. CRL-5837, RRID:CVCL_1582), NCI-H196 (ATCC, cat. CRL-5823, RRID:CVCL_1509), NCI-H841 (ATCC, cat. CRL-5845, RRID:CVCL_1595), NCI-H1618 (ATCC, cat. CRL-5879, RRID:CVCL_1480), NCI-H1876 (ATCC, cat. CRL-5902, RRID:CVCL_1503), DMS 114 (ATCC, cat. CRL-2066; RRID:CVCL_1174), NCI-H211 (ATCC, cat. CRL-5824; RRID:CVCL_1529), and SW 1271 (ATCC, cat. CRL-2177, RRID:CVCL_1716). The small cell lung cancer cell line COR-L88 was purchased from Sigma-Aldrich (cat. 92031917-1VL, RRID:CVCL_1141). The non-small cell lung cancer cell lines NCI-H226 (RRID:CVCL_1544) and NCI-H322M (RRID:CVCL_1557) were established at the NCI and grown from internal seed stocks. Pooled donor human umbilical vein endothelial cells (HUVEC, Lonza, cat. CC-2519) and human mesenchymal stem cells (hMSC, Lonza, cat. PT-2501) were purchased from Lonza (Walkersville, MD).
Cell Culture. All cells were maintained in an incubator at 37 degrees C and 5% CO2 with 95% humidity. […]
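Also: spheroids exposed to compounds for 7 days before readout.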
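For viability, T/C in this document: percent of vehicle control viability where 100% = DMSO-treated spheroids.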

Structure (SMILES): Cc1cc(C)c(CNC(=O)c2cc(-c3ccc(CN4CCOCC4)cc3)cc3c2cnn3C2CCCC2)c(=O)[nH]1 + CC[C@@]1(O)C(=O)OCc2c1cc1n(c2=O)Cc2cc3c(CN(C)C)c(O)ccc3nc2-1
- IC50 (second compound 0.003 µM): > 10000 nM
- IC50 (second compound 0.00949 µM): > 10000 nM
- IC50 (second compound 0.03 µM): 8490 nM
- IC50 (second compound 0.0949 µM): < 31.6 nM
- IC50 (second compound 0.3 µM): < 31.6 nM
- viability, T/C (second compound 0.003 µM, first compound 0.0316 µM): 137%
- viability, T/C (second compound 0.003 µM, first compound 0.1 µM): 111%
- viability, T/C (second compound 0.003 µM, first compound 0.316 µM): 86.7%
- viability, T/C (second compound 0.003 µM, first compound 1 µM): 87.8%
- viability, T/C (second compound 0.003 µM, first compound 3.16 µM): 84.4%
- viability, T/C (second compound 0.003 µM, first compound 10 µM): 82.9%
- viability, T/C (second compound 0.00949 µM, first compound 0.0316 µM): 83%
- viability, T/C (second compound 0.00949 µM, first compound 0.1 µM): 81.6%
- viability, T/C (second compound 0.00949 µM, first compound 0.316 µM): 73.8%
- viability, T/C (second compound 0.00949 µM, first compound 1 µM): 84.8%
- viability, T/C (second compound 0.00949 µM, first compound 3.16 µM): 84.5%
- viability, T/C (second compound 0.00949 µM, first compound 10 µM): 79.5%
- viability, T/C (second compound 0.03 µM, first compound 0.0316 µM): 65.7%
- viability, T/C (second compound 0.03 µM, first compound 0.1 µM): 66.6%
- viability, T/C (second compound 0.03 µM, first compound 0.316 µM): 55.4%
- viability, T/C (second compound 0.03 µM, first compound 1 µM): 57.7%
- viability, T/C (second compound 0.03 µM, first compound 3.16 µM): 49.3%
- viability, T/C (second compound 0.03 µM, first compound 10 µM): 51%
- viability, T/C (second compound 0.0949 µM, first compound 0.0316 µM): 23.4%
- viability, T/C (second compound 0.0949 µM, first compound 0.1 µM): 17.8%
- viability, T/C (second compound 0.0949 µM, first compound 0.316 µM): 25.1%
- viability, T/C (second compound 0.0949 µM, first compound 1 µM): 20.6%
- viability, T/C (second compound 0.0949 µM, first compound 3.16 µM): 17.5%
- viability, T/C (second compound 0.0949 µM, first compound 10 µM): 22.2%
- viability, T/C (second compound 0.3 µM, first compound 0.0316 µM): 31.3%
- viability, T/C (second compound 0.3 µM, first compound 0.1 µM): 29.5%
- viability, T/C (second compound 0.3 µM, first compound 0.316 µM): 31.8%
- viability, T/C (second compound 0.3 µM, first compound 1 µM): 30.9%
- viability, T/C (second compound 0.3 µM, first compound 3.16 µM): 27.6%
- viability, T/C (second compound 0.3 µM, first compound 10 µM): 30.6%

Structure (SMILES): Cc1sc2c(c1C)C(c1ccc(Cl)cc1)=NC(CC(=O)Nc1ccc(O)cc1)c1nnc(C)n1-2 (stereo not given) + CC[C@@]1(O)C(=O)OCc2c1cc1n(c2=O)Cc2cc3c(CN(C)C)c(O)ccc3nc2-1
- IC50 (second compound 0.003 µM): 1460 nM
- IC50 (second compound 0.00949 µM): 1960 nM
- IC50 (second compound 0.03 µM): 78.6 nM
- IC50 (second compound 0.0949 µM): < 9.49 nM
- IC50 (second compound 0.3 µM): < 9.49 nM
- viability, T/C (second compound 0.003 µM, first compound 0.00949 µM): 155%
- viability, T/C (second compound 0.003 µM, first compound 0.03 µM): 103%
- viability, T/C (second compound 0.003 µM, first compound 0.0949 µM): 81.1%
- viability, T/C (second compound 0.003 µM, first compound 0.3 µM): 70%
- viability, T/C (second compound 0.003 µM, first compound 0.949 µM): 61.1%
- viability, T/C (second compound 0.003 µM, first compound 3 µM): 47.4%
- viability, T/C (second compound 0.00949 µM, first compound 0.00949 µM): 68.4%
- viability, T/C (second compound 0.00949 µM, first compound 0.03 µM): 88.6%
- viability, T/C (second compound 0.00949 µM, first compound 0.0949 µM): 82.6%
- viability, T/C (second compound 0.00949 µM, first compound 0.3 µM): 75.4%
- viability, T/C (second compound 0.00949 µM, first compound 0.949 µM): 62.4%
- viability, T/C (second compound 0.00949 µM, first compound 3 µM): 42.8%
- viability, T/C (second compound 0.03 µM, first compound 0.00949 µM): 50.1%
- viability, T/C (second compound 0.03 µM, first compound 0.03 µM): 54.9%
- viability, T/C (second compound 0.03 µM, first compound 0.0949 µM): 51.3%
- viability, T/C (second compound 0.03 µM, first compound 0.3 µM): 39%
- viability, T/C (second compound 0.03 µM, first compound 0.949 µM): 29.8%
- viability, T/C (second compound 0.03 µM, first compound 3 µM): 19.1%
- viability, T/C (second compound 0.0949 µM, first compound 0.00949 µM): 22.5%
- viability, T/C (second compound 0.0949 µM, first compound 0.03 µM): 21.8%
- viability, T/C (second compound 0.0949 µM, first compound 0.0949 µM): 21%
- viability, T/C (second compound 0.0949 µM, first compound 0.3 µM): 22.5%
- viability, T/C (second compound 0.0949 µM, first compound 0.949 µM): 24.6%
- viability, T/C (second compound 0.0949 µM, first compound 3 µM): 24.4%
- viability, T/C (second compound 0.3 µM, first compound 0.00949 µM): 33.2%
- viability, T/C (second compound 0.3 µM, first compound 0.03 µM): 29.1%
- viability, T/C (second compound 0.3 µM, first compound 0.0949 µM): 31.1%
- viability, T/C (second compound 0.3 µM, first compound 0.3 µM): 24.8%
- viability, T/C (second compound 0.3 µM, first compound 0.949 µM): 25.4%
- viability, T/C (second compound 0.3 µM, first compound 3 µM): 16.5%
